Results reported in ChEMBL document CHEMBL1154454, “Tetrahydronaphthyl azole oxime ethers: the conformationally rigid analogues of oxiconazole as antibacterials” (2009).
In brackets after ≈: the same amount, converted by molar mass.

Key:
Format in all cases: functional
[1] = tested on: Pseudomonas aeruginosa; test: Antimicrobial activity against Pseudomonas aeruginosa ATCC BAA427 after 24 hrs by standard microbroth dilution assay
[2] = tested on: Aspergillus fumigatus; test: Antimicrobial activity against Aspergillus fumigatus after 72 hrs by standard microbroth dilution assay
[3] = tested on: Staphylococcus aureus; test: microbe, parasite or virus in culture; conditions: ATCC 25923, 24 h
Description: Antimicrobial activity against Staphylococcus aureus ATCC 25923 after 24 hrs by standard microbroth dilution assay

[4] = tested on: Candida albicans; test: Antimicrobial activity against Candida albicans after 48 hrs by standard microbroth dilution assay
[5] = tested on: Klebsiella pneumoniae; test: microbe, parasite or virus in culture; conditions: ATCC 27736, 24 h
Description: Antimicrobial activity against Klebsiella pneumoniae ATCC 27736 after 24 hrs by standard microbroth dilution assay

[6] = tested on: Sporothrix schenckii; test: Antimicrobial activity against Sporothrix schenckii after 72 hrs by standard microbroth dilution assay
[7] = tested on: Cryptococcus neoformans; test: Antimicrobial activity against Cryptococcus neoformans after 72 hrs by standard microbroth dilution assay
[8] = tested on: Trichophyton mentagrophytes; test: Antimicrobial activity against Trichophyton mentagrophytes after 96 hrs by standard microbroth dilution assay
[9] = tested on: Candida parapsilosis; test: Antimicrobial activity against Candida parapsilosis after 48 hrs by standard microbroth dilution assay; conditions: Lodderomyces parapsilosis
[10] = tested on: Escherichia coli; test: microbe, parasite or virus in culture; conditions: ATCC 9637, 24 h
Description: Antimicrobial activity against Escherichia coli ATCC 9637 after 24 hrs by standard microbroth dilution assay

SMILES | MIC [1] [µg/mL] | MIC [2] [µg/mL] | MIC [3] [µg/mL] | MIC [4] [µg/mL] | MIC [5] [µg/mL] | MIC [6] [µg/mL] | MIC [7] [µg/mL] | MIC [8] [µg/mL] | MIC [9] [µg/mL] | MIC [10] [µg/mL]
Fc1cccc2c1CCC(Cn1ccnc1)/C2=N/OCc1cccc(Cl)c1 (stereo unspecified) | > 50 | > 50 | 0.781 (≈ 2.03 µM) | > 50 | 1.56 (≈ 4.07 µM) | > 50 | > 50 | > 50 | > 50 | 0.391 (≈ 1.02 µM)
Clc1cccc(CO/N=C2/c3ccccc3CCC2Cn2ccnc2)c1 (stereo unspecified) | > 50 | > 50 | 6.25 (≈ 17.1 µM) | > 50 | > 50 | > 50 | > 50 | 25 (≈ 68.3 µM) | > 50 | > 50
Clc1cccc(CO/N=C2/c3cccc(Br)c3CCC2Cn2ccnc2)c1 (stereo unspecified) | > 50 | > 50 | 1.56 (≈ 3.51 µM) | 50 (≈ 112 µM) | > 50 | 50 (≈ 112 µM) | > 50 | 12.5 (≈ 28.1 µM) | > 50 | > 50
Clc1cccc(CO/N=C2\c3ccccc3CCC2Cn2cncn2)c1 (stereo unspecified) | > 50 | > 50 | 12.2 (≈ 33.4 µM) | > 50 | > 50 | > 50 | > 50 | > 50 | > 50 | 12.2 (≈ 33.4 µM)
OC(Cn1cncn1)(Cn1cncn1)c1ccc(F)cc1F [FLUCONAZOLE] | – | 2 (≈ 6.53 µM) | – | 0.5 (≈ 1.63 µM) | – | 2 (≈ 6.53 µM) | 1 (≈ 3.27 µM) | 1 (≈ 3.27 µM) | 1 (≈ 3.27 µM) | –
Clc1cccc(CO/N=C2\c3cccc(Br)c3CCC2Cn2cncn2)c1 (stereo unspecified) | > 50 | > 50 | 6.25 (≈ 14 µM) | > 50 | > 50 | > 50 | > 50 | > 50 | > 50 | 3.12 (≈ 7.01 µM)
Brc1cccc2c1CCC(Cn1cncn1)/C2=N/OCc1ccccc1 (stereo unspecified) | > 50 | > 50 | 12.5 (≈ 30.4 µM) | > 50 | > 50 | > 50 | > 50 | > 50 | > 50 | 6.25 (≈ 15.2 µM)
Clc1cccc2c1CCC(Cn1cncn1)/C2=N/OCc1ccccc1 (stereo unspecified) | > 50 | > 50 | > 50 | > 50 | > 50 | > 50 | > 50 | > 50 | > 50 | 25 (≈ 68.1 µM)
Clc1cccc2c1CCC(Cn1ccnc1)/C2=N\OCc1ccccc1 (stereo unspecified) | > 50 | > 50 | 3.12 (≈ 8.54 µM) | 50 (≈ 137 µM) | > 50 | 50 (≈ 137 µM) | > 50 | 12.5 (≈ 34.2 µM) | > 50 | > 50
Fc1cccc2c1CCC(Cn1cncn1)/C2=N/OCc1cccc(Cl)c1 (stereo unspecified) | > 50 | > 50 | > 50 | > 50 | > 50 | > 50 | > 50 | > 50 | > 50 | 50 (≈ 130 µM)
Brc1cccc2c1CCC(Cn1ccnc1)/C2=N/OCc1ccccc1 (stereo unspecified) | > 50 | 50 (≈ 122 µM) | 1.56 (≈ 3.81 µM) | > 50 | 3.12 (≈ 7.62 µM) | > 50 | > 50 | > 50 | > 50 | 0.391 (≈ 0.953 µM)
Cc1cccc2c1CCC(Cn1ccnc1)/C2=N/OCc1ccccc1 (stereo unspecified) | > 50 | > 50 | 1.56 (≈ 4.52 µM) | > 50 | 6.25 (≈ 18.1 µM) | > 50 | > 50 | > 50 | > 50 | 0.781 (≈ 2.26 µM)
